Laboratory results taken from US5747235A, “Silver halide light sensitive emulsion layer having enhanced photographic sensitivity” (Eastman Kodak Company, priority 1996, dated 1998).
Where a name gives a salt, the structure may show the parent alone.

Legend:
[1] = oxidation potential E1 by cyclic voltammetry; assay type: physicochemical; conditions: for E1 (V) for XY moiety: Table H, model compound, A and L replaced by alkyl
Method: Oxidation potentials are well known and can be found, for example, in "Encyclopedia of Electrochemistry of the Elements", Organic Section, Volumes XI-XV, A. Bard and H. Lund (Editors) Marcel Dekker Inc., NY. (1984). E1 can be measured by the technique of cyclic voltammetry. In this technique, the electron donating compound is dissolved in a solution of 80%/20% by volume acetonitrile to water containing 0.1M lithium perchlorate. Oxygen is removed from the solution by passing nitrogen gas through the solution for 10 minutes prior to measurement. A glassy carbon disk is used for the working electrode, a platinum wire is used for the counter electrode, and a saturated calomel electrode (SCE) is used for the reference electrode. Measurement is conducted at 25° C. using a potential sweep rate of 0.1 V/sec. The oxidation potential vs. SCE is taken as the peak potential of the cyclic voltammetric wave.

[2] = oxidation potential E2 of radical X by laser flash photolysis; assay type: physicochemical; conditions: Table H; model compound, A and L replaced by alkyl
Excerpt: In this technique, the compound X-Y is oxidized by an electron transfer reaction initiated by a short laser pulse. The oxidized form of X-Y then undergoes the bond cleavage reaction to give the radical X^.cndot.. X^.cndot. is then allowed to interact with various electron acceptor compounds of known reduction potential. […] The experimental details are set forth more fully below. The oxidation potentials (E2) for radicals X^.cndot. for typical compounds useful in accordance with our invention are given in Table C. Where only limits on potentials could be determined, the following notation is used: <-0.90 V should be read as "more negative than -0.90 V" and >-0.40 V should be read as "less negative than -0.40 V".
(a) Oxidation Potential of Radical X.cndot.
The laser flash photolysis measurements were performed using a nanosecond pulsed excimer (Questek model 2620, 308 nm, ca. 20 ns, ca. 100 mJ) pumped dye laser (Lambda Physik model FL 3002). The laser dye was DPS (commercially available from Exciton Co.) in p-dioxane (410 nm, ca. 20 ns, ca. 10 mJ). The analyzing light source was a pulsed 150W xenon arc lamp (Osram XBO 150/W). The arc lamp power supply was a PRA model 302 and the pulser was a PRA model M-306. The pulser increased the light output by ca. 100 fold, for a time period of ca. 2-3 ms. The analyzing light was focussed through a small aperture (ca. 1.5 mm) in a cell holder designed to hold 1 cm^2 cuvettes. The laser and analyzing beams irradiated the cell from opposite directions and crossed at a narrow angle (ca. 15°). After leaving the cell, the analyzing light was collimated and focussed onto the slit (1 mm, 4 nm bandpass) of an ISA H-20 monochromator. The light was detected using 5 dynodes of a Hamamatsu model R446 photomultiplier. The output of the photomultiplier tube was terminated into 50 ohm, and captured using a Tektronix DSA-602 digital oscilloscope. The entire experiment is controlled from a personal computer.
The experiments were performed either in acetonitrile, or a mixture of 80% acetonitrile and 20% water. The first singlet excited state of a cyanoanthracene (A), which acted as the electron acceptor, was produced using the nanosecond laser pulse at 410 nm. […] Secondary electron transfer then occurred between B^.cndot.+ and the lower oxidation potential electron donor X-Y, to generate X-Y^.cndot.+ in high yield. For the investigations of the oxidation potentials of the radicals X^.cndot., typically the cyanoanthrancene concentration was ca. 2×10^-5 M to 10^-4 M the biphenyl concentration was ca. 0.1M. The concentration of the X-Y donor was ca. 10^-3 M. The rates of the electron transfer reactions are determined by the concentrations of the substrates. The concentrations used ensured that the A^.cndot.- and the X-Y^.cndot.+ were generated within 100 ns of the laser pulse. The radical ions could be observed directly by means of their visible absorption spectra. The kinetics of the photogenerated radical ions were monitored by observation of the changes in optical density at the appropriate wavelengths.
The reduction potential (Ered) of 9,10-dicyanoanthracene (DCA) is -0.91 V. In a typical experiment, DCA is excited and the initial photo-induced electron transfer from the biphenyl (B) to the DCA forms a DCA^.cndot.-, which is observed at its characteristic absorption maximum (λobs =705 nm), within ca. 20 ns of the laser pulse. Rapid secondary electron transfer occurs from X-Y to B^.cndot.+ to generate X-Y^.cndot.+, which fragments to give X^.cndot.. A growth in absorption is then observed at 705 nm with a time constant of ca. 1 microsecond, due to reduction of a second DCA by the X^.cndot.. The absorption signal with the microsecond growth time is equal to the size of the absorption signal formed within 20 ns.
If the oxidation potential of X^.cndot. is not sufficiently negative to reduce DCA, an estimate of its oxidation potential was obtained by using other cyanoanthracenes as acceptors. […]

[3] = fragmentation rate constant kfr by laser flash photolysis; assay type: physicochemical; conditions: Table H; model compound, A and L replaced by alkyl
Excerpt: The kinetics of the bond cleavage or fragmentation reaction can be measured by conventional laser flash photolysis. […] The specific experimental apparatus we used to measure fragmentation rate constants and radical oxidation potentials is described in detail below.
(b) Fragmentation Rate Constant Determination
These absorptions were used to determine the kinetics of the fragmentation reactions of the radical cations of the X-Y. Excitation of 9,10-dicyanoanthracene (DCA) in the presence of biphenyl and the X-Y donor, as described above, results in the formation of the DCA^.cndot.- and the X-Y^.cndot.+. By using a concentration of X-Y of ca. 10^-2 M, the X-Y^.cndot.+ can be formed within ca. 20 ns of the laser pulse. […] The monitoring wavelengths used were somewhat different for the different donors, but were mostly around 470-530 nm. […] Alternatively, when the decay rate of the X-Y^.cndot.+ was less than 10^6 s^-1, the solutions were purged with oxygen.
The experiments measuring the fragmentation rate constants were performed in acetonitrile with the addition of 20% water, so that all of the salts could be easily solubilized. Most experiments were performed at room temperature. […] When this happened, the fragmentation rate constants were measured as a function of temperature, and the rate constant at room temperature determined by extrapolation.

[4] = Example 2: photographic speed and fog, 365 nm exposure, acids vs corresponding esters, emulsion T-1; set-up: Fog: unit not given here; conditions: for Fog / S365: undyed; for S365: control=100
Method: This chemically sensitized emulsion was then used to prepare the experimental coating variations indicated in Table I. All of the experimental coating variations in Table I contained the hydroxybenzene 2,4-disulfocatechol (HB3) at a concentration of 13 mmole/mole Ag, added to the melt before the addition of any further addenda. The fragmentable electron donor compounds as indicated in Table I were added from an aqueous potassium bromide solution, or from a methanol solution, before additional water, gelatin, and surfactant were added to the emulsion melts.
(§1) For photographic evaluation, each of the coating strips was exposed for 0.1 sec to a 365 nm emission line of a Hg lamp filtered through a Kodak Wratten filter number 18A and a step wedge ranging in density from 0 to 4 density units in 0.2 density steps. The exposed film strips were developed for 6 min in Kodak Rapid X-ray Developer (KRX). S365, relative sensitivity at 365 nm, was evaluated at a density of 0.2 units above fog.
The coatings described in Table II all contain the hydroxybenzene, 2,4-disulfocatechol (HB3) at a concentration of 13 mmole/mole Ag, added to the melt before any further addenda.

[5] = Example 10: photographic sensitivity and fog, color format, blue sensitized emulsion T-2; conditions: for Photographic Sensitivity SWR2B: control=100
Method: The hydroxybenzene, 2,4-disulfocatechcol (HB3) at a concentration of 13×10^-3 mole/mole Ag was added to the emulsion melt before the start of the chemical sensitization procedure. […] The fragmentable two-electron donors S-3, S-9, S-6, or S-8 were then added to the emulsion melt.
The melts were prepared for coating by adding additional water, deionized gelatin and coating surfactants. Coatings were prepared by combining the emulsion melts with a melt containing deionized gelatin and an aqueous dispersion of the cyan-forming color coupler CC-1 and coating the resulting mixture on acetate support. […] The structure of the color coupler CC-1 is given below: [drawing 120]
For photographic evaluation, each of the coating strips was exposed for 0.01 sec to a 3000K color temperature tungsten lamp filtered to give an effective color temperature of 5500K and further filtered through a Kodak Wratten filter number 2B, and a step wedge ranging in density from 0 to 4 density units in 0.20 density steps. This exposure gives light absorbed mainly by the blue sensitizing dye. The exposed film strips were developed for 31/4 minutes in Kodak C-41 color developer. SWR2B, relative sensitivity for this filtered exposure, was evaluated at a cyan density of 0.15 units above fog.

[6] = Example 5: photographic speed and fog, 365 nm exposure, fragmenting vs non-fragmenting one-electron donors, emulsion T-2; set-up: Fog: unit not given here; conditions: for sensitivity and fog change: undyed T-2 emulsion
Method: as §1
An AgBrI tabular silver halide emulsion (Emulsion T-2) was prepared containing 4.05% total I distributed such that the central portion of the emulsion grains contained 1.5% I and the perimeter area contained substantially higher I, as described by Chang et. al., U.S. Pat. No. 5,314,793. […] This emulsion was precipitated using deionized gelatin. The emulsion was sulfur sensitized by adding 8.5×10^-6 mole 1,3-dicarboxymethyl-1,3-dimethyl-2-thiourea /mole Ag at 40° C.; the temperature was then raised to 60° C. at a rate of 5° C./3 min and the emulsions held for 20 min before cooling to 40° C. The chemically sensitized emulsion was then used to prepare coatings containing the fragmentable two-electron donor compounds. […] Where present, the blue sensitizing dye D-I or the red sensitizing dye D-II were added from methanol solution to the emulsion at 40° C. after the chemical sensitization and disulfocatechol addition. The fragmentable two-electron donor compounds were added to the emulsion at 40° C. and the coatings were prepared and tested as described in Example 1, except that the additional gelatin used to prepare the coatings described in Table III was deionized gelatin.
Where present, the sensitizing dye D-II was added from methanol solution to the emulsion at 40° C. after the chemical sensitization but before the addition of the one-electron donating compound. The coatings were tested for their response to a 365 nm exposure as described in Example 1. For this exposure, the relative sensitivity was set equal to 100 for the control coating with no one-electron donating compound added.

[7] = 0.044 x10^-3 mole/mole Ag, dye D-II 0.86 x10^-3
[8] = 0.044 x10^-3 mole/mole Ag, dye D-II 0.86 x10^-3, dyed control 69
[9] = 0.044 x10^-3 mole/mole Ag, no dye, no HB3
[10] = 0.044 x10^-3 mole/mole Ag, no dye, no HB3, control=100
[11] = 0.14 x10^-3 mole/mole Ag, dye D-II 0.86 x10^-3
[12] = 0.14 x10^-3 mole/mole Ag, dye D-II 0.86 x10^-3, dyed control 69
[13] = 0.14 x10^-3 mole/mole Ag, no dye, no HB3
[14] = 0.14 x10^-3 mole/mole Ag, no dye, no HB3, control=100

Compound | E1 (V) for XY moiety [1] [V] | E2 (V) for XY moiety [2] [V] | kfr (s^-1) for XY moiety [3] | Fog [6, 7] | S365 [6, 8] | Fog [6, 9] | S365 [6, 10] | Fog [6, 11] | S365 [6, 12] | Fog [6, 13] | S365 [6, 14] | sensitivity and fog change [6] | E1 (V) ([1]; Table V) | further results
CCSCCN(c1ccc(OC)cc1)C(C)C(=O)O (centres unmarked) [Compound S-1, sodium salt] | 0.22 | < -0.9 | 1.1e+06 s⁻¹ |  |  |  |  |  |  |  |  |  |  | E1 (V) ([1]; Table II): 0.35 V; Fog ([4]; 0.00022 x10^-3 mole/mole Ag): 0.06; S365 ([4]; 0.00022 x10^-3 mole/mole Ag): 107; Fog ([4]; 0.00070 x10^-3 mole/mole Ag): 0.28; S365 ([4]; 0.00070 x10^-3 mole/mole Ag): 89; Fog ([4]; 0.00220 x10^-3 mole/mole Ag): 0.82; speed and fog change ([4]; undyed T-1 emulsion): both speed and fog increases
CCSCCN(CC(=O)[O-])c1ccc(C)cc1.[Na+] [Compound S-6, N-(4-Methylphenyl)-N-(2-ethylthio-ethyl)glycine sodium salt] |  |  |  |  |  |  |  |  |  |  |  |  |  | E1 (V) ([1]; Table X): 0.45 V; Fog ([5]; 0.022 x10^-3 mol/mol Ag): 0.14; Photographic Sensitivity SWR2B ([5]; 0.022 x10^-3 mol/mol Ag): 120; Fog ([5]; 0.07 x10^-3 mol/mol Ag): 0.21; Photographic Sensitivity SWR2B ([5]; 0.07 x10^-3 mol/mol Ag): 126
CCSCCN(CCSCC)c1ccc(CC(=O)O)cc1 [Compound S-17, Sodium 2-(4-N,N-bis(ethylthioethyl)aminophenyl)acetate] | 0.57 | < -0.5 | ≈ 3 × 10^5 s^-1 | 0.11 | 80 | 0.05 | 110 | 0.11 | 89 | 0.06 | 120 | increased the 365 nm sensitivity of the undyed emulsion | 0.62 | 
CCSCCNC(=O)CCN(CC)c1ccc(CC(=O)O)cc1 [Compound S-18] | 0.57 | < -0.5 | ≈ 3 × 10^5 s^-1 | 0.05 | 95 | 0.05 | 135 | 0.06 | 107 | 0.06 | 148 | increased the 365 nm sensitivity of the undyed emulsion | 0.68 | 
